Laboratory results taken from ChEMBL document CHEMBL1201862, “PubChem BioAssay data set” (2004).
Where a name gives a salt, the structure may show the parent alone.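 Values below derive from 48-hour exposures of cells grown in 96-well plates, with endpoints linearly interpolated between the two concentrations bracketing the appropriate inhibition level. GI50 is the concentration that inhibits growth by half.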 Active and inactive are the calls of the source. Cut-off read from the data, not from the text of the source: active = GI50 up to about 1.1 µM and inactive = higher. Residues, ends and D or L forms follow the SMILES beside them. *: point of attachment. Boc = CC(C)(C)OC(=O)*

Columns and labels:
Test in all cases: inhibition of tumour cell growth, NCI panel, 48 h
[1] = system: A549
[2] = system: ACHN
[3] = system: BT-549
[4] = system: DU-145
[5] = system: HCC 2998
[6] = system: HCT-15
[7] = system: HOP-92
[8] = system: LOX IMVI
[9] = system: MDA-MB-435
[10] = system: NCI/ADR-RES
[11] = system: OVCAR-5
[12] = system: SF-295
[13] = system: SK-MEL-2
[14] = system: SK-OV-3
[15] = system: SNB-75
[16] = system: SW-620
[17] = system: CCRF-CEM
[18] = system: Hs-578T
[19] = system: RPMI-8226
[20] = system: UACC-62

SMILES | GI50 [1] | GI50 [2] | GI50 [3] | GI50 [4] | GI50 [5] | GI50 [6] | GI50 [7] | GI50 [8] | GI50 [9] | GI50 [10] | GI50 [11] | GI50 [12] | GI50 [13] | GI50 [14] | GI50 [15] | GI50 [16] | GI50 [17] | GI50 [18] | GI50 [19] | GI50 [20]
O=C(Cc1csc(N/N=C2\C(=O)Nc3ccccc32)n1)Nc1ccccc1 | 39.9 µM (inactive) | 21.6 µM (inactive) | 41.7 µM (inactive) | 24.9 µM (inactive) | 31.6 µM (inactive) | 38.5 µM | 35.7 µM (inactive) | 46.5 µM (inactive) | 39.5 µM (inactive) | 20 µM (inactive) | > 100 µM (inactive) | 28.9 µM (inactive) | 91.8 µM (inactive) | 30.3 µM (inactive) | 28.5 µM (inactive) | 33 µM (inactive) |  |  |  | 
COC(=O)c1c2c(cc3c1CC1(Cc4cc5c(cc4C1)CCC5)C3)CCC2 | > 100 µM (inactive) | > 100 µM (inactive) |  | > 100 µM (inactive) | > 100 µM (inactive) | > 100 µM | > 100 µM (inactive) | > 100 µM (inactive) | 77.4 µM (inactive) | > 100 µM (inactive) | > 100 µM (inactive) | > 100 µM (inactive) | > 100 µM (inactive) | > 100 µM (inactive) | > 100 µM (inactive) | > 100 µM (inactive) | > 100 µM (inactive) | > 100 µM (inactive) | > 100 µM (inactive) | 
COc1cc2c3c([nH]c2c(OC)c1OC)CCN(Cc1ccccc1)C3 | 86.7 µM (inactive) | 47.8 µM (inactive) |  | > 100 µM (inactive) | 17.9 µM (inactive) | 31.9 µM | 6.27 µM (inactive) | 16.3 µM (inactive) | 15.6 µM (inactive) | 29.9 µM (inactive) | 23.8 µM (inactive) | 30.8 µM (inactive) | 22.6 µM (inactive) |  | 42.1 µM (inactive) | 1.95 µM (inactive) | 17.7 µM (inactive) | 32.4 µM (inactive) | 18.5 µM (inactive) | 32.3 µM (inactive)
CC(=O)c1c2c(cc3c1CC1(Cc4cc5c(cc4C1)CCCC5)C3)CCCC2 | > 100 µM (inactive) | 6.49 µM (inactive) |  |  | > 100 µM (inactive) | 36.1 µM | > 100 µM (inactive) | 55.1 µM (inactive) | 16.9 µM (inactive) | > 100 µM (inactive) | > 100 µM (inactive) | 37.2 µM (inactive) | 18.8 µM (inactive) | > 100 µM (inactive) | < 0.01 µM (active) |  |  | > 100 µM (inactive) | 11.8 µM (inactive) | > 100 µM (inactive)
O=C1NC(=S)NC(=O)C1C(c1ccc(Cl)cc1)C1C(=O)NC(=S)NC1=O.c1ccncc1 | > 100 µM (inactive) | > 100 µM (inactive) | > 100 µM (inactive) | > 100 µM (inactive) |  | > 100 µM | > 100 µM (inactive) | > 100 µM (inactive) | > 100 µM (inactive) | > 100 µM (inactive) | > 100 µM (inactive) | > 100 µM (inactive) | > 100 µM (inactive) |  |  | > 100 µM (inactive) | > 100 µM (inactive) |  | > 100 µM (inactive) | > 100 µM (inactive)
[N-]=[N+]=Nc1c(Cc2ccccc2)c(Cl)nc2ccccc12 | 36.3 µM (inactive) | 25.1 µM (inactive) |  | 42.8 µM (inactive) | 49.4 µM (inactive) | 35.2 µM | 20.2 µM (inactive) | 18.4 µM (inactive) | 13.6 µM (inactive) | 22.4 µM (inactive) | 31 µM (inactive) | 22.2 µM (inactive) | 16.6 µM (inactive) | 53 µM (inactive) | 22.6 µM (inactive) | 33.4 µM (inactive) | 39.8 µM (inactive) | 21.3 µM (inactive) | 38.3 µM (inactive) | 22.6 µM (inactive)
C[C@]12CCC3[C@@H](CC[C@@H]4c5nonc5CC[C@]34C)C1CC[C@@H]2O (stereo not given in full) | 25.5 µM (inactive) | 23.6 µM (inactive) |  |  | 31.8 µM (inactive) | 28.4 µM | 23 µM (inactive) | 19.6 µM (inactive) |  |  | > 100 µM (inactive) | 34.8 µM (inactive) | 22.6 µM (inactive) | 30.5 µM (inactive) | 27.2 µM (inactive) | 29.3 µM (inactive) | 22 µM (inactive) |  | 14.5 µM (inactive) | 30.9 µM (inactive)
O=C(O)C1C2C=CC(C2)C1c1ccccc1 (stereo not given) | > 100 µM (inactive) | > 100 µM (inactive) |  | > 100 µM (inactive) | > 100 µM (inactive) | > 100 µM | > 100 µM (inactive) | > 100 µM (inactive) | > 100 µM (inactive) | > 100 µM (inactive) | > 100 µM (inactive) | > 100 µM (inactive) | 31.6 µM (inactive) | > 100 µM (inactive) | > 100 µM (inactive) | > 100 µM (inactive) | > 100 µM (inactive) | > 100 µM (inactive) | > 100 µM (inactive) | > 100 µM (inactive)
COC1(OC)N=C(N)C2(C#N)C(C)CC(=O)N(N(C)C)C12C#N (stereo not given) | > 100 µM (inactive) | > 100 µM (inactive) |  | > 100 µM (inactive) | > 100 µM (inactive) | > 100 µM | > 100 µM (inactive) | > 100 µM (inactive) | > 100 µM (inactive) | > 100 µM (inactive) | > 100 µM (inactive) | > 100 µM (inactive) | > 100 µM (inactive) | > 100 µM (inactive) | 40.5 µM (inactive) | > 100 µM (inactive) | > 100 µM (inactive) | > 100 µM (inactive) | > 100 µM (inactive) | > 100 µM (inactive)
Cc1ccc(S(=O)(=O)N/N=c2/sc3ccccc3n2C)cc1 | > 100 µM (inactive) | > 100 µM (inactive) |  | > 100 µM (inactive) | > 100 µM (inactive) | > 100 µM | > 100 µM (inactive) | > 100 µM (inactive) | > 100 µM (inactive) | > 100 µM (inactive) | > 100 µM (inactive) | > 100 µM (inactive) | > 100 µM (inactive) | > 100 µM (inactive) | > 100 µM (inactive) | > 100 µM (inactive) | > 100 µM (inactive) | > 100 µM (inactive) | > 100 µM (inactive) | > 100 µM (inactive)
COc1ccc(C(OCC2OC(n3ccc(NC(=O)c4ccccc4)nc3=O)C(O)C2O)(c2ccccc2)c2ccccc2)cc1 (stereo not given) | 4.06 µM (inactive) | 2.9 µM (inactive) |  | 3.37 µM (inactive) | 3.4 µM (inactive) | 1.82 µM |  |  | 2.63 µM (inactive) | 2.37 µM (inactive) | 2 µM (inactive) | 1.95 µM (inactive) | 3.33 µM (inactive) | 7.28 µM (inactive) | 9.55 µM (inactive) | 3.13 µM (inactive) | 2.26 µM (inactive) | 2.12 µM (inactive) | 2.42 µM (inactive) | 8.26 µM (inactive)
COc1ccccc1/C=N/C12CC3CC(CC(C3)C1)C2 | > 100 µM (inactive) | > 100 µM (inactive) |  |  | > 100 µM (inactive) | 91.8 µM | > 100 µM (inactive) | > 100 µM (inactive) |  |  | > 100 µM (inactive) | > 100 µM (inactive) | > 100 µM (inactive) | > 100 µM (inactive) | 86.9 µM (inactive) | > 100 µM (inactive) | > 100 µM (inactive) |  | > 100 µM (inactive) | > 100 µM (inactive)
C=C1c2nc3ccccc3n2C=C(c2ccccc2)N1c1ccc(OC)cc1 | 18.5 µM (inactive) | 13 µM (inactive) | 13.5 µM (inactive) | 26.4 µM (inactive) |  | 6.9 µM | 31.1 µM (inactive) | 50 µM (inactive) | 33.5 µM (inactive) | 17.7 µM (inactive) | 43.7 µM (inactive) | 10.7 µM (inactive) | 28.6 µM (inactive) | 34.6 µM (inactive) | 3.68 µM (inactive) | 47.5 µM (inactive) | 22.8 µM (inactive) |  | 12.4 µM (inactive) | 17.7 µM (inactive)
CN1CCCOC(c2ccc(Cl)cc2)O1 (stereo not given) | > 100 µM (inactive) | > 100 µM (inactive) | > 100 µM (inactive) | > 100 µM (inactive) | > 100 µM (inactive) | > 100 µM | 65 µM (inactive) | > 100 µM (inactive) | > 100 µM (inactive) | > 100 µM (inactive) | > 100 µM (inactive) | > 100 µM (inactive) | > 100 µM (inactive) | > 100 µM (inactive) | > 100 µM (inactive) | > 100 µM (inactive) | > 100 µM (inactive) |  |  | > 100 µM (inactive)
COC(=O)C(Cc1c[nH]c2ccccc12)NC(=O)C(Cc1c[nH]c2ccccc12)NC(=O)C(Cc1c[nH]c2ccccc12)NC(=O)C(Cc1c[nH]c2ccccc12)NC(=O)C(Cc1c[nH]c2ccccc12)NC(=O)C(Cc1c[nH]c2ccccc12)NC(=O)OC(C)(C)C (stereo not given) (Boc-WWWWWW-OMe; configuration not given here) | 31.7 µM (inactive) | > 100 µM (inactive) | 44 µM (inactive) | 32.9 µM (inactive) | > 100 µM (inactive) | > 100 µM |  | 38.1 µM (inactive) | > 100 µM (inactive) |  | > 100 µM (inactive) |  | 61.7 µM (inactive) |  | 46 µM (inactive) | > 100 µM (inactive) | > 100 µM (inactive) |  | 57 µM (inactive) | 32 µM (inactive)
CN[C@@H](C)[C@@H](O)c1ccccc1 [PSEUDOEPHEDRINE HYDROCHLORIDE] | > 100 µM (inactive) | > 100 µM (inactive) |  | > 100 µM (inactive) | > 100 µM (inactive) | > 100 µM | > 100 µM (inactive) | > 100 µM (inactive) | > 100 µM (inactive) | > 100 µM (inactive) | > 100 µM (inactive) | > 100 µM (inactive) | > 100 µM (inactive) |  | > 100 µM (inactive) | > 100 µM (inactive) | > 10 µM (inactive) | > 100 µM (inactive) | > 100 µM (inactive) | 
